From ChEMBL document CHEMBL1201862, “PubChem BioAssay data set” (2004)
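Briefly, cells in 96-well plates were exposed to five compound concentrations for 48 h, and endpoints were estimated by linear interpolation. The concentration for 50% growth inhibition is given as GI50.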 The source made the active and inactive calls. No stated cut-off is given here; in the data, active = GI50 up to about 1.1 µM and inactive = higher.

Assays:
Test in all cases: NCI anticancer screen, dose series, 48 h
DLD-1 = system: DLD-1
DMS-114 = system: DMS-114
DMS-273 = system: DMS-273
HOP-18 = system: HOP-18
KM-20L2 = system: KM-20L2
LXFL 529 = system: LXFL 529
M19-MEL = system: M19-MEL
SNB-78 = system: SNB-78
RXF 631 = system: RXF 631

Structure (SMILES)	GI50 (DLD-1)	GI50 (DMS-114)	GI50 (DMS-273)	GI50 (HOP-18)	GI50 (KM-20L2)	GI50 (LXFL 529)	GI50 (M19-MEL)	GI50 (SNB-78)	GI50 (RXF 631)
Cc1ccc(NC(=O)CSc2nnc(Cc3ccccc3)o2)cc1	> 100 µM (inactive)	53.2 µM (inactive)	> 100 µM (inactive)	> 100 µM (inactive)	> 100 µM (inactive)	> 100 µM (inactive)	> 100 µM (inactive)	> 100 µM (inactive)	–
CCOC(=O)c1c(NNc2ccccc2)nc2ccccc2c1-c1ccccc1	25.9 µM (inactive)	17.1 µM (inactive)	43.2 µM (inactive)	28.6 µM (inactive)	35.5 µM (inactive)	19 µM (inactive)	24.3 µM (inactive)	27 µM (inactive)	–
Cc1ccc(S(=O)(=O)NC(C)C(=O)O)cc1 (centres undefined)	> 100 µM (inactive)	–	> 100 µM (inactive)	> 100 µM (inactive)	> 100 µM (inactive)	> 100 µM (inactive)	> 100 µM (inactive)	–	> 100 µM (inactive)
COc1cc2ccc3c4cc(OC)c(OCc5ccccc5)cc4cnc3c2cc1OC	> 100 µM (inactive)	> 100 µM (inactive)	–	–	> 100 µM (inactive)	> 100 µM (inactive)	> 100 µM (inactive)	> 100 µM (inactive)	–
COC(=O)C(=O)C(C(=O)C=C(C)C)C(=O)C(=O)Nc1cccc(C(C)=O)c1 (centres undefined)	> 100 µM (inactive)	> 100 µM (inactive)	> 100 µM (inactive)	> 100 µM (inactive)	> 100 µM (inactive)	> 100 µM (inactive)	> 100 µM (inactive)	> 100 µM (inactive)	> 100 µM (inactive)
CCNc1nnc(CSc2nc(-c3ccccc3)c(-c3ccccc3)[nH]2)s1	22.7 µM (inactive)	20.7 µM (inactive)	22.2 µM (inactive)	–	27.8 µM (inactive)	24.7 µM (inactive)	16.3 µM (inactive)	30.8 µM (inactive)	–
CCCCCCCCC/C=C/C=C/C(=O)NCC(=O)NC1C(O)C(O)C(Nc2ncnc3[nH]cnc23)OC1C(O)CO (centres undefined)	0.0655 µM (active)	0.0551 µM (active)	0.001 µM (active)	–	0.001 µM (active)	0.00838 µM (active)	0.001 µM (active)	–	–
CCc1cccc(CC)c1NC(=O)C1=CNC(C)=C(C(=O)Nc2c(CC)cccc2CC)C1c1ccc(O)c(OC)c1 (centres undefined)	47 µM (inactive)	24.5 µM (inactive)	–	–	49.5 µM (inactive)	27.1 µM (inactive)	34.4 µM (inactive)	28.7 µM (inactive)	37.9 µM (inactive)
O=C1C=CC(S(=O)(=O)C2=C/C(=C/Nc3ccc(Cl)cc3)C(=O)C=C2)=C/C1=C/Nc1ccc(Cl)cc1	> 100 µM (inactive)	> 100 µM (inactive)	> 100 µM (inactive)	> 100 µM (inactive)	> 100 µM (inactive)	> 100 µM (inactive)	> 100 µM (inactive)	–	> 100 µM (inactive)
FC(F)(F)C12C34C=CC5(CCC6(C=CC1(CC3)O6)C52C(F)(F)F)O4 (centres undefined)	–	–	> 100 µM (inactive)	> 100 µM (inactive)	> 100 µM (inactive)	> 100 µM (inactive)	> 100 µM (inactive)	> 100 µM (inactive)	–
Nc1ccc(-c2cc(C(=O)Nc3nccs3)nc(S)n2)cc1	> 100 µM (inactive)	> 100 µM (inactive)	–	61.1 µM (inactive)	> 100 µM (inactive)	> 100 µM (inactive)	> 100 µM (inactive)	> 100 µM (inactive)	–
CCOc1ccccc1NC(=O)CCc1nnc2s/c(=C\CCc3ccccc3)c(=O)n12	> 100 µM (inactive)	> 100 µM (inactive)	> 100 µM (inactive)	–	> 100 µM (inactive)	> 100 µM (inactive)	> 100 µM (inactive)	> 100 µM (inactive)	–
CN1C(=O)N(C)C(N2CCCC2)c2c1nc1ccccn1c2=O (centres undefined)	35.3 µM (inactive)	56.2 µM (inactive)	43.4 µM (inactive)	> 100 µM (inactive)	> 100 µM (inactive)	63.5 µM (inactive)	92.5 µM (inactive)	57.4 µM (inactive)	–
Nc1nc(-c2ccccc2)c(Cl)c(-c2cc(Cl)ccc2O)n1	26.3 µM (inactive)	26.7 µM (inactive)	29.7 µM (inactive)	42.3 µM (inactive)	65.3 µM (inactive)	25.9 µM (inactive)	> 72.1 µM (inactive)	28.1 µM (inactive)	97.7 µM (inactive)
CC(Oc1ccc(OCC2CCCCC2)cc1)C(=O)NCc1ccco1 (centres undefined)	34.9 µM (inactive)	18.4 µM (inactive)	25.5 µM (inactive)	89.7 µM (inactive)	–	35.6 µM (inactive)	40.7 µM (inactive)	58.6 µM (inactive)	–
Cn1c(N)[n+](C(=O)OCc2ccccc2)c(=O)c2c1ncn2C(=O)OCc1ccccc1	95.1 µM (inactive)	99.8 µM (inactive)	> 100 µM (inactive)	78.9 µM (inactive)	> 100 µM (inactive)	> 100 µM (inactive)	> 100 µM (inactive)	41.5 µM (inactive)	–
N#C/N=C(/N)NCc1ccccc1	> 100 µM (inactive)	> 100 µM (inactive)	> 100 µM (inactive)	–	> 100 µM (inactive)	> 100 µM (inactive)	> 100 µM (inactive)	–	–
N#CC1(C2SCC[S+]2[O-])C2=C(C(=O)c3ccccc3C2=O)N2CCCC21 (centres undefined)	2.74 µM (inactive)	2.14 µM (inactive)	3.03 µM (inactive)	3.25 µM (inactive)	4.97 µM (inactive)	2.74 µM (inactive)	0.286 µM (active)	1.49 µM (inactive)	1.46 µM (inactive)
COCN1COCN/C1=N\C#N	> 100 µM (inactive)	> 100 µM (inactive)	98.2 µM (inactive)	> 100 µM (inactive)	> 100 µM (inactive)	> 100 µM (inactive)	> 100 µM (inactive)	> 100 µM (inactive)	> 100 µM (inactive)
CC[C@]1(O)C[C@H]2CN(CCc3c([nH]c4ccccc34)[C@@](C(=O)OC)(c3cc4c(cc3OC)N(C)[C@H]3[C@@](O)(C(=O)OC)[C@H](OC(C)=O)[C@]5(CC)C=CCN6CC[C@]43[C@@H]65)C2)C1	0.00433 µM (active)	–	0.000375 µM (active)	0.573 µM (active)	0.000397 µM (active)	0.00045 µM (active)	–	0.00173 µM (active)	0.00262 µM (active)
